Our source for the IC50 values is patent US9169243B2, “Apoptosis signal-regulating kinase inhibitors” (Gilead Sciences, Inc., priority 2013, dated 2015).

This assay addresses recombinant human ASK1 kinase (Homo sapiens (Human), UniProt Q99683). Put plainly: TR-FRET ASK1 (Apoptosis Signal-Regulating Kinase 1) kinase assay. Format: biochemical. The following applies: TR-FRET/HTRF, 4 nM ASK1, 1 μM STK3 peptide substrate, 100 μM ATP, 3 hr; average of quadruplicate determination. An excerpt:
I. TR-FRET ASK1 (Apoptosis Signal-Regulating Kinase 1) Kinase Assay
To evaluate the inhibitory activity of compounds of the invention against ASK1 (Apoptosis Signal-regulating Kinase 1) kinase, its activity was examined using a TR-FRET ASK1 kinase assay which determined the amount of phosphate transferred to a peptide substrate from ATP.
Dephosphorylated recombinant human ASK1 kinase was from Gilead Sciences. Small molecule kinase inhibitor staurosporine (Catalogue #S6942) and dithiothreitol (DTT, catalogue #43815-5G) were obtained from Sigma Chemicals (St. Louis, Mo.). ATP (catalogue #7724) was from Affymetrix (Santa Clara, Calif.) and test compounds were from Gilead Sciences. HTRF KinEASE™-STK S3 kit was obtained from Cisbio (Bedford, Mass.). All other reagents were of the highest grade commercially available.
The assay measures the phosphorylation level of a biotinylated peptide substrate by the ASK1 kinase using HTRF detection. This is a competitive, time-resolved fluorescence resonance energy transfer (TR-FRET) immunoassay, based on HTRF® KinEASE™-STK manual from Cisbio. Test compound, 1 μM STK3 peptide substrate, 4 nM of ASK1 kinase were incubated with 10 mM MOP buffer, pH. 7.0 containing 10 mM Mg-acetate, 0.025% NP-40, 1 mM DTT, 0.05% BSA and 1.5% glycerol for 30 minutes then 100 μM ATP was added to start the kinase reaction and incubated for 3 hr. Peptide antibody labeled with 1×Eu^3+ Cryptate buffer containing 10 mM EDTA and 125 nM Streptavidin XL665 were added to stop the reaction and phosphorylated peptide substrate was detected using Envision 2103 Multilabeled reader from PerkinElmer. The fluorescence was measured at 615 nm (Cryptate) and 665 nm (XL665) and a ratio of 665 nm/615 nm was calculated for each well. The resulting TR-FRET level (a ratio of 665 nm/615 nm) was proportional to the phosphorylation level. Under these assay conditions, the degree of phosphorylation of peptide substrate was linear with time and concentration for the enzyme. The assay system yielded consistent results with regard to Km and specific activities for the enzyme. For inhibition experiments (IC50 values), activities were performed with constant concentrations of ATP, peptide and several fixed concentrations of inhibitors. Staurosporine, the nonselective kinase inhibitor, was used as the positive control. All enzyme activity data are reported as an average of quadruplicate determination.
The IC50 values were calculated following equation: y=Range/{1+(x/IC50)^s}+Background where x and y represent the concentration of inhibitors and enzyme activity, respectively. Enzyme activity is expressed as the amount of Phosphate incorporated into substrate peptide from ATP. Range is the maximum y range (no inhibitor, DMSO control) and s is a slope factor.

Chain of recombinant human ASK1 kinase (Q99683 whole entry): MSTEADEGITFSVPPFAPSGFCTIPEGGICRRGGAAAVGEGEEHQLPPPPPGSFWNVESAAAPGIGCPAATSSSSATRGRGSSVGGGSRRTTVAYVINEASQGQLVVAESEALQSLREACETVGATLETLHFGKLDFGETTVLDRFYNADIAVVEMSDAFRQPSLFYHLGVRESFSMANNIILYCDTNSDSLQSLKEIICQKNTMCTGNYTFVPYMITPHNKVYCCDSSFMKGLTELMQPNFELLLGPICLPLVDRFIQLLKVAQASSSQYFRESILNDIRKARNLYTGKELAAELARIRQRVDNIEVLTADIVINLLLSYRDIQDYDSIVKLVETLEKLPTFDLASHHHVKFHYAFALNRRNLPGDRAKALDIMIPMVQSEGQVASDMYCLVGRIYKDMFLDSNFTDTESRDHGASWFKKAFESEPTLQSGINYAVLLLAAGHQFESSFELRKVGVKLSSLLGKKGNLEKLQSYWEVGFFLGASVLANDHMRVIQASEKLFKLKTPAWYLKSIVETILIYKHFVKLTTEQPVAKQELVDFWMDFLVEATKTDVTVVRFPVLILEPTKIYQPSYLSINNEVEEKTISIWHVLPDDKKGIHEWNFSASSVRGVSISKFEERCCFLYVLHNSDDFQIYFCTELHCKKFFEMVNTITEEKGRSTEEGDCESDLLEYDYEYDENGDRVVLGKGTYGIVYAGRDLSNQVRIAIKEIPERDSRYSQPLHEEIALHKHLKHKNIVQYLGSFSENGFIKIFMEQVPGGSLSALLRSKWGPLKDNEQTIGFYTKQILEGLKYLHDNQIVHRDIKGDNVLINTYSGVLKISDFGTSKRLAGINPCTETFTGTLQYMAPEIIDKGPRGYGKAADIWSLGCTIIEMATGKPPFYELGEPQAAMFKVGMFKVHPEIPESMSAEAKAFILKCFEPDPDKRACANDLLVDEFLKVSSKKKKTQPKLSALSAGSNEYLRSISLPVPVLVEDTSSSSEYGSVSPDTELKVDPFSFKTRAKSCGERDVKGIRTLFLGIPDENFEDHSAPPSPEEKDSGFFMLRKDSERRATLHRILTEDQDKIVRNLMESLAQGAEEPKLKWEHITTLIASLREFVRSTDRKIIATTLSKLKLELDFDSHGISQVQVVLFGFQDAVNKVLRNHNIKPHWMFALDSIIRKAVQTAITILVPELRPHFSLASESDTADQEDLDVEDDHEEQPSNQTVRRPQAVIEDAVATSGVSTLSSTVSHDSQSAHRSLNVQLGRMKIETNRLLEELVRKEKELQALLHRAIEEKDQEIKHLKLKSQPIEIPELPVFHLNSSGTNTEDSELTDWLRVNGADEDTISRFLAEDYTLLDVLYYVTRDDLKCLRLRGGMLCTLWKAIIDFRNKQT

Consider `O=C(Nc1csc(-c2nncn2C2CC2)n1)c1cc(-n2cnc(C3CC3)c2)c(N2CC(C(F)F)C2)cn1` [Compound 1, 4-(4-cyclopropylimidazol-1-yl)-N-[2-(4-cyclopropyl-1,2,4-triazol-3-yl)-1,3-thiazol-4-yl]-5-[3-(difluoromethyl)azetidin-1-yl]pyridine-2-carboxamide], for which the IC50 was 2.2 nM.
For the compound `N#CC1CN(c2cnc(C(=O)Nc3csc(-c4nncn4C4CC4)n3)cc2-n2cnc(C3CC3)c2)C1` [Compound 2, 5-(3-cyanoazetidin-1-yl)-4-(4-cyclopropylimidazol-1-yl)-N-[2-(4-cyclopropyl-1,2,4-triazol-3-yl)-1,3-thiazol-4-yl]pyridine-2-carboxamide], the IC50 was 0.9 nM.
For `CC1(C#N)CN(c2cnc(C(=O)Nc3csc(-c4nncn4C4CC4)n3)cc2-n2cnc(C3CC3)c2)C1` [Compound 3, 5-(3-cyano-3-methylazetidin-1-yl)-4-(4-cyclopropyiimidazol-1-yl)-N-[2-(4-cyclopropyl-1,2,4-triazol-3-yl)-1,3-thiazol-4-yl]pyridine-2-carboxamide] the value was 1.9 nM; for `COC1(C)CN(c2cnc(C(=O)Nc3csc(-c4nncn4C4CC4)n3)cc2-n2cnc(C3CC3)c2)C1` [Compound 4, 4-(4-cyclopropylimidazol-1-yl)-N-[2-(4-cyclopropyl-1,2,4-triazol-3-yl)-1,3-thiazol-4-yl]-5-(3-methoxy-3-methylazetidin-1-yl)pyridine-2-carboxamide], 1.8 nM; for `O=C(Nc1csc(-c2nncn2C2CC2)n1)c1cc(-n2cnc(C3CC3)c2)c(N2CC(F)(F)C2)cn1` [Compound 5, 4-(4-cyclopropylimidazol-1-yl)-N-[2-(4-cyclopropyl-1,2,4-triazol-3-yl)-1,3-thiazol-4-yl]-5-(3,3-difluoroazetidin-1-yl)pyridine-2-carboxamide], 2.8 nM.
With `COC1CCN(c2cnc(C(=O)Nc3csc(-c4nncn4C4CC4)n3)cc2-n2cnc(C3CC3)c2)C1` (stereo not shown) [Compound 6, 4-(4-cyclopropylimidazol-1-yl)-N-[2-(4-cyclopropyl-1,2,4-triazol-3-yl)-1,3-thiazol-4-yl]-5-(3-methoxypyrrolidin-1-yl)pyridine-2-carboxamide], the IC50 was determined as 2.8 nM.
`O=C(Nc1csc(-c2nncn2C2CC2)n1)c1cc(-n2cnc(C3CC3)c2)c(N2CCC(C(F)(F)F)CC2)cn1` [Compound 7, 4-(4-cyclopropylimidazol-1-yl)-N-[2-(4-cyclopropyl-1,2,4-triazol-3-yl)-1,3-thiazol-4-yl]-5-[4-(trifluoromethyl)piperidin-1-yl]pyridine-2-carboxamide]: the 50% inhibitory concentration (IC50) turned out to be 3.2 nM.
With `O=C(Nc1csc(-c2nncn2C2CC2)n1)c1cc(-n2cnc(C3CC3)c2)c(N2CCC(F)CC2)cn1` [Compound 8, 4-(4-cyclopropylimidazol-1-yl)-N-[2-(4-cyclopropyl-1,2,4-triazol-3-yl)-1,3-thiazol-4-yl]-5-(4-fluoropiperidin-1-yl)pyridine-2-carboxamide], the IC50 amounted to 2.5 nM.
As to `N#CC1CCN(c2cnc(C(=O)Nc3csc(-c4nncn4C4CC4)n3)cc2-n2cnc(C3CC3)c2)CC1` [Compound 9, 5-(4-cyanopiperidin-1-yl)-4-(4-cyclopropylimidazol-1-yl)-N-[2-(4-cyclopropyl-1,2,4-triazol-3-yl)-1,3-thiazol-4-yl]pyridine-2-carboxamide], the IC50 was found to be 2.2 nM.
To `COC1CCN(c2cnc(C(=O)Nc3csc(-c4nncn4C4CC4)n3)cc2-n2cnc(C3CC3)c2)CC1` [Compound 10, 4-(4-cyclopropylimidazol-1-yl)-N-[2-(4-cyclopropyl-1,2,4-triazol-3-yl)-1,3-thiazol-4-yl]-5-(4-methoxypiperidin-1-yl)pyridine-2-carboxamide] belongs 3.2 nM; to `CNC(=O)C1CCN(c2cnc(C(=O)Nc3csc(-c4nncn4C4CC4)n3)cc2-n2cnc(C3CC3)c2)CC1` [Compound 11, 4-(4-cyclopropylimidazol-1-yl)-N-[2-(4-cyclopropyl-1,2,4-triazol-3-yl)-1,3-thiazol-4-yl]-5-[4-(methylcarbamoyl)piperidin-1-yl]pyridine-2-carboxamide], 0.4 nM; to `COC1(C)CCN(c2cnc(C(=O)Nc3csc(-c4nncn4C4CC4)n3)cc2-n2cnc(C3CC3)c2)CC1` [Compound 12, 4-(4-cyclopropylimidazol-1-yl)-N-[2-(4-cyclopropyl-1,2,4-triazol-3-yl)-1,3-thiazol-4-yl]-5-(4-methoxy-4-methylpiperidin-1-yI)pyridine-2-carboxamide], 14.2 nM.
On to `O=C(Nc1csc(-c2nncn2C2CC2)n1)c1cc(-n2cnc(C3CC3)c2)c(N2CCN(CC(F)(F)F)CC2)cn1` [Compound 13, 4-(4-cyclopropylimidazol-1-yl)-N-[2-(4-cyclopropyl-1,2,4-triazol-3-yl)-1,3-thiazol-4-yl]-5-[4-(2,2,2-trifluoroethyl)piperazin-1-yl]pyridine-2-carboxamide], for which the half-maximal inhibitory concentration (IC50) was 2.9 nM.
`O=C(Nc1csc(-c2nncn2C2CC2)n1)c1cc(-n2cnc(C3CC3)c2)c(N2CCCOCC2)cn1` [Compound 14, 4-(4-cyclopropylimidazol-1-yl)-N-[2-(4-cyclopropyl-1,2,4-triazol-3-yl)-1,3-thiazol-4-yl]-5-(1,4-oxazepan-4-yl)pyridine-2-carboxamide]: the IC50 was 3.8 nM.
For `O=C(Nc1csc(-c2nncn2C2CC2)n1)c1cc(-n2cnc(C3CC3)c2)c(N2CCN3C(=O)OCC3C2)cn1` (stereo not shown) [Compound 16, 4-(4-cyclopropylimidazol-1-yl)-N-[2-(4-cyclopropyl-l,2,4-triazol-3-yl)-1,3-thiazol-4-yl]-5-(3-oxo-5,6,8,8a-tetrahydro-1H-[1,3]oxazolo[3,4-a]pyrazin-7-yl)pyridine-2-carboxamide], the IC50 came to 2.7 nM.
`O=C(Nc1csc(-c2nncn2C2CC2)n1)c1cc(-n2cnc(C3CC3)c2)c(N2CC3CC3C2)cn1` (stereo not shown) [Compound 17, 5-(3-azabicyclo[3.1.0]hexan-3-yl)-4-(4-cyclopropylimidazol-1-yl)-N-[2-(4-cyclopropyl-1,2,4-triazol-3-yl)-3,3-thiazol-4-yl]pyridine-2-carboxamide]: the concentration for half-maximal inhibition (IC50) worked out at 1.1 nM.
For `O=C(Nc1csc(-c2nncn2C2CC2)n1)c1cc(-n2cnc(C3CC3)c2)c(N2CC(N3CCOCC3)C2)cn1` [Compound 18, 4-(4-cyclopropylimidazol-1-yl)-N-[2-(4-cyclopropyl-1,2,4-triazol-3-yl)-1,3-thiazol-4-yl]-5-(3-morpholin-4-ylazetidin-1-yl)pyridine-2-carboxamide] the value was 2.3 nM.
For `O=C(Nc1csc(-c2nncn2C2CC2)n1)c1cc(-n2cnc(C3CC3)c2)c(N2CCN(C3CC3)CC2)cn1` [Compound 19, 4-(4-cyclopropylimidazol-1-yl)-5-(4-cyclopropylpiperazin-1-yl)-N-[2-(4-cyclopropyl-1,2,4-triazol-3-yl)-1,3-thiazol-4-yl]pyridine-2-carboxamide], the IC50 was 2.8 nM.
Regarding `O=C(Nc1csc(-c2nncn2C2CC2)n1)c1cc(-n2cnc(C3CC3)c2)c(N2CCN(CC3CC3)CC2)cn1` [Compound 20, 4-(4-cyclopropylimidazol-1-yl)-5-[4-(cyclopropylmethyl)piperazin-1-yl]-N-[2-(4-cyclopropyl-1,2,4-triazol-3-yl)-1,3-thiazol-4-yl]pyridine-2-carboxamide], the IC50 was found to be 2.5 nM.
As for `O=C(Nc1csc(-c2nncn2C2CC2)n1)c1cc(-n2cnc(C3CC3)c2)c(N2CCC3(CC2)COC3)cn1` [Compound 21, 4-(4-cyclopropylimidazol-1-yl)-N-[2-(4-cyclopropyl-1,2,4-triazol-3-yl)-1,3-thiazol-4-yl]-5-(2-oxa-7-azaspiro[3.5]nonan-7-y!)pyridine-2-carboxamide], the IC50 came out at 1.9 nM.
Take `O=C(Nc1csc(-c2nncn2C2CC2)n1)c1cc(-n2cnc(C3CC3)c2)c(N2CC3(CCOCC3)C2)cn1` [Compound 22, 4-(4-cyclopropylimidazol-1-yl)-N-[2-(4-cyclopropyl-1,2,4-triazol-3-yl)-1,3-thiazol-4-yl]-5-(7-oxa-2-azaspiro[3.5]nonan-2-yl)pyridine-2-carboxamide]: the IC50 is 4.5 nM.
With `COCC1CN(c2cnc(C(=O)Nc3csc(-c4nncn4[C@@H](C)C(F)(F)F)n3)cc2-n2cnc(C3CC3)c2)C1` [Compound 23, (S)-4-(4-cyclopropyl-1H-imidazol-1-yl)-5-(3-(methoxymethyl)azetidin-1-yl)-N-(2-(4-(1,1,1-trifluoropropan-2-yl)-4H-1,2,4-triazol-3-yl)thiazol-4-yl)picolinamide], the concentration for half-maximal inhibition (IC50) stood at 2 nM.
